Reference: patent US20040009243A1, “Cancer preventive composition comprising ginsenoside glycosides of red ginseng” (priority 2002, published 2004)
Entries after “also recorded” stand apart in the source; their conditions may differ. Where two headings read alike, the source gives them in different places.

Legend:
[1] = system: lung adenoma induced by benzo(a)pyrene; assay: 9-weeks medium-term anticarcinogenicity test of ginsenosides (Experiment 1); type: in vivo, NIH(GP) mice; details: for incidence of lung adenoma on the average: BP 0.5 mg plus ginsenoside; for incidence of lung adenoma on the average / Incidence (lung adenoma), treatment alone without BP: sacrifice 9th week; for incidence of lung adenoma on the average / Incidence, number of mice with lung adenoma / Incidence, value in parentheses (percent of mice with lung adenoma) / Multiplicity (Mean ± S.D.): BP line = carcinogen alone; for Incidence, number of mice with lung adenoma / Incidence, value in parentheses (percent of mice with lung adenoma) / Multiplicity (Mean ± S.D.): BP 0.5 mg/head + ginsenoside 80 μg/ml; for Incidence (lung adenoma), treatment alone without BP: red ginseng extract 2 mg/ml, ginsenosides 80 μg/ml in drinking water, 6 weeks; for lung adenoma in groups treated singularly, without BP (in words): treatment alone, 9 weeks
From the text: 1) Experimental animal: In this experiment newborn non-inbred strain NIH(GP) mice were used. Each experimental animal was in a breeding chamber maintained at constant temperature and humidity and, after weaning, given a solid feed prepared according to the NIH-7 open formula. The experimental animals were allowed to freely take drinking water and diet.
2) Establishment of the test groups: The test groups were a total of 10 groups including the normal control group, the ginsenoside Rg3 treatment group, the ginsenoside Rg5 group, the ginsenoside Rh1 group, the ginsenoside Rh2 group, the BP 0.5 mg group, the BP plus ginsenoside Rg3 group, the BP plus ginsenoside Rg5 group, the BP plus ginsenoside Rh1 group, and the BP plus ginsenoside Rh2 group, wherein 25 to 30 newborn mouse, female and male respectively, were used in each group.
3) Chemical carcinogen: As the chemical carcinogen, benzo(a)pyrene (BP: Sigma Chemical Co.) was used. The given amount of BP was suspended in 1% aqueous gelatin solution and then injected subcutaneously in the subscapular region once in an amount of 0.02 cc (0.5 mg).
4) Administration of respective ginsenosides: Respective ginsenosides, i.e. ginsenoside Rg3, ginsenoside Rg5, ginsenoside Rh1 and ginsenoside Rh2 were suspended in drinking water to 80 μg/ml and daily administered from the 3rd week to 9 th week after birth, i.e. during the period of 6 weeks.
5) Monitoring and sacrifice of experimental animals: The appearance of mice was monitored every time at which the feed and drinking water were changed, beginning from weaning at the 3th week after birth. Mice were weighed at intervals of one week and sacrificed at the 9th week after birth and then subjected to autopsy.
6) Pathological investigation: Immediately after autopsy, lungs were exposed to observe the presence or absence of nodules of lung adenoma, and at the same time, to observe the presence or absence of any lesion in respective main organs by the naked eye. Then lungs were fixed in Tellyesniczky solution and the other main organs were fixed in 10% neutral formalin solution, cut and then examined with a microscope. After fixing of lungs, nodules of long adenoma were counted by the naked eye. Then lungs were cut as in case of other main organs, stained with hematoxylin-eosin and then investigated to find nodules of lung adenoma.
7) Statistical treatment: The comparisons of the calculated lung adenoma incidence in respective test groups were made using the Chi-square test and the comparisons of multiplicity were made using Student's t test to obtain P-value.

male ICR mice = assay: acute toxicity test (Experiment 2); type: in vivo; details: for autopsy examination, macroscopic (in words) / dead animals (in words): 1000 mg/kg oral, once; for autopsy examination, macroscopic (in words): 14th day after administration; for dead animals (in words): observed for 14 days; for acute toxicity / toxicity (in words): mice, oral route, 1000 mg/kg
Description: 20 male ICR mice weighing 26-30 grams were used in each test group to conduct the acute toxicity test of ginsenosides Rg3, Rg5 and Rh2. Specifically, each of ginsenosides Rg3, Rg5 and Rh2 was prepared in 0.5% Tween 80 as the solvent to the concentration of 100 mg/ml and then orally administered to mice once in an amount of 0.2 ml per 20 grams of body weight. The control group was given only 0.5% Tween 80 solvent via oral route. […] Further, on 14th day after administration the animals were sacrificed and then autopsied to examine macroscopically the main organs.

[2] = system: mouse pulmonary adenoma induced by benzo(a)pyrene; details: BP + ginseng of given age, BP line = carcinogen alone, cited from earlier work

Row | SMILES | incidence of lung adenoma on the average [1] [%] | Incidence, number of mice with lung adenoma ([1]; Sex F) | Incidence, value in parentheses (percent of mice with lung adenoma) ([1]; Sex F) | Multiplicity (Mean ± S.D.) ([1]; Sex F) | Incidence (lung adenoma), treatment alone without BP ([1]; Sex F) | Incidence, number of mice with lung adenoma ([1]; Sex M + F) | Incidence, value in parentheses (percent of mice with lung adenoma) ([1]; Sex M + F) | Multiplicity (Mean ± S.D.) ([1]; Sex M + F) | Incidence (lung adenoma), treatment alone without BP ([1]; Sex M + F) | Incidence, number of mice with lung adenoma ([1]; Sex M) | Incidence, value in parentheses (percent of mice with lung adenoma) ([1]; Sex M) | Multiplicity (Mean ± S.D.) ([1]; Sex M) | Incidence (lung adenoma), treatment alone without BP ([1]; Sex M) | lung adenoma in groups treated singularly, without BP (in words) [1] | autopsy examination, macroscopic (in words) (male ICR mice) | dead animals (in words) (male ICR mice) | acute toxicity / toxicity (in words) (male ICR mice) | other results
1 | CC(C)=CCC[C@](C)(O)[C@H]1CC[C@]2(C)[C@@H]1[C@H](O)C[C@@H]1[C@@]3(C)CC[C@H](O[C@@H]4O[C@H](CO)[C@@H](O)[C@H](O)[C@H]4O[C@@H]4O[C@H](CO)[C@@H](O)[C@H](O)[C@H]4O)C(C)(C)[C@@H]3CC[C@]12C [Ginsenoside Rg3, ginsenoside Rg3] | 46.7 | 15 | 50.0 | 1.03 ± 1.27 | 0 | 28 | 46.7 | 0.85 ± 1.13 | 0 | 13 | 43.3 | 0.67 ± 0.96 | 0 | did never occur lung adenoma | no special pathological finding | no dead animal was observed | did not exhibit any acute toxicity; also recorded: have no toxicity | 
2 | CC(C)=CCC[C@](C)(O)[C@H]1CC[C@]2(C)[C@@H]1[C@H](O)C[C@@H]1[C@@]3(C)CC[C@H](O)C(C)(C)[C@@H]3[C@@H](O[C@@H]3O[C@H](CO)[C@@H](O)[C@H](O)[C@H]3O)C[C@]12C [Ginsenoside Rh1, ginsenoside Rh1, reference compound] |  | 16 | 53.3 | 1.49 ± 1.86 |  | 31 | 51.7 | 1.03 ± 1.27 |  | 15 | 50.0 | 1.20 ± 1.54 |  | did never occur lung adenoma |  |  |  | 
3 | CC(C)=CCC[C@](C)(O)[C@H]1CC[C@]2(C)[C@@H]1[C@H](O)C[C@@H]1[C@@]3(C)CC[C@H](O[C@@H]4O[C@H](CO)[C@@H](O)[C@H](O)[C@H]4O)C(C)(C)[C@@H]3CC[C@]12C [Ginsenoside Rh2, ginsenoside Rh2] | 48.3 | 16 | 53.3 | 1.53 ± 1.93 | 0 | 29 | 48.3 | 1.15 ± 1.61 | 0 | 13 | 43.3 | 0.77 ± 1.14 | 0 | did never occur lung adenoma | no special pathological finding | no dead animal was observed | did not exhibit any acute toxicity; also recorded: have no toxicity | 
4 | c1ccc2c(c1)cc1ccc3cccc4ccc2c1c34 [Benzo(a)pyrene (BP), benzo(a)pyrene, reference compound] | 60 | 16 | 64.0 | 1.80 ± 2.12 |  | 30 | 60.0 | 1.50 ± 1.82 |  | 14 | 56.0 | 1.20 ± 1.44 |  |  |  |  |  | Incidence of lung adenoma ([2]; Fresh ginseng Extract series): 63.9; Incidence of lung adenoma ([2]; Fresh ginseng Powder series): 41.3; Incidence of lung adenoma ([2]; Red ginseng Extract series): 47.5; Incidence of lung adenoma ([2]; Red ginseng powder series): 48.6; Incidence of lung adenoma ([2]; White ginseng Powder series): 45.0; Incidence of lung adenoma ([2]; White ginseng extract series): 41.3
5 | CC(C)=CC/C=C(\C)[C@H]1CC[C@]2(C)[C@@H]1[C@H](O)C[C@@H]1[C@@]3(C)CC[C@H](O[C@@H]4O[C@H](CO)[C@@H](O)[C@H](O)[C@H]4O[C@@H]4O[C@H](CO)[C@@H](O)[C@H](O)[C@H]4O)C(C)(C)[C@@H]3CC[C@]12C [Ginsenoside Rg5, ginsenoside Rg5] | 45.0 | 14 | 46.7 | 1.33 ± 2.89 | 0 | 27 | 45.0 | 1.08 ± 2.21 | 0 | 13 | 43.3 | 0.83 ± 1.21 | 0 | did never occur lung adenoma | no special pathological finding | no dead animal was observed | did not exhibit any acute toxicity; also recorded: have no toxicity | 
